From ChEMBL document CHEMBL4359841, “Late-Stage Functionalization of Platensimycin Leading to Multiple Analogues with Improved Antibacterial Activity in Vitro and in Vivo” (2019) come the findings set out here.

Each structure is given as a SMILES string. Converted amounts (≈) assume the structure as drawn. The source made the active and inactive calls.

The subject of test [1] is Staphylococcus aureus. As to the kind of experiment: Inhibition of FabB/FabF in methicillin-resistant Staphylococcus aureus assessed as antibacterial activity after 16 hrs by agar dilution method. (In agar dilution the substance is mixed into plates at graded concentrations.)
Test [2] relates to Staphylococcus aureus. As to the kind of experiment: Inhibition of FabB/FabF in methicillin-sensitive Staphylococcus aureus assessed as antibacterial activity after 16 hrs by agar dilution method.
Test [3] relates to Staphylococcus aureus. As to the kind of experiment: Inhibition of FabB/FabF in Staphylococcus aureus ATCC 29213 assessed as antibacterial activity after 16 hrs by agar dilution method.
For test [4], the system named is Staphylococcus aureus. Put plainly: Inhibition of FabB/FabF in methicillin-resistant Staphylococcus aureus assessed as antibacterial activity at 5 ug/disk after 18 hrs by agar disk diffusion method. On the technique in general: A growth-free zone around the sample is the usual read-out of agar diffusion tests.
The subject of test [5] is Staphylococcus aureus. As to the kind of experiment: Inhibition of FabB/FabF in methicillin-resistant Staphylococcus aureus assessed as antibacterial activity at 2 ug/disk after 18 hrs by agar disk diffusion method.
Test [6] deals with Staphylococcus aureus. As to the kind of experiment: Antibacterial activity against methicillin-resistant Staphylococcus aureus infected in C57BL/6J mouse model of peritonitis assessed as mouse survival at 20 mg/kg, ip dosed at 1 hr and 5 hrs post infection and measured for 7 days relative to control. It is filed as functional.
Test [7] has as its system Staphylococcus aureus. As to the kind of experiment: Antibacterial activity against methicillin-resistant Staphylococcus aureus infected in C57BL/6J mouse model of peritonitis assessed as mouse survival at 10 mg/kg, ip dosed at 1 hr and 5 hrs post infection and measured for 7 days relative to control. It is filed as functional.
The test system of test [8] is Staphylococcus aureus. Put plainly: Antibacterial activity against methicillin-resistant Staphylococcus aureus infected in BALB/c mouse model of skin infection assessed as bacterial load in skin lesions at 2 mg administered topically as ointment twice daily for 7 days and measured at 24 hrs post last dose (7.9 +/- 0.9 x 10^8 CFU/g). It is filed as functional.
Test [9] concerns Staphylococcus aureus. Put plainly: Antibacterial activity against methicillin-resistant Staphylococcus aureus infected in BALB/c mouse model of skin wound assessed as retainment of dermis layers at 2 mg administered topically as ointment twice daily for 7 days and measured and after 24 hrs by HE staining analysis. The format is functional, organism-based.
Test [10] deals with Staphylococcus aureus. As to the kind of experiment: Antibacterial activity against methicillin-resistant Staphylococcus aureus infected in BALB/c mouse model of skin wound assessed as reduction in appearance of secondary scald at 2 mg administered topically as ointment twice daily for 7 days and measured after 24 hrs by visual inspection method. The format is functional, organism-based.

Test [11] has as its system Staphylococcus aureus. Put plainly: Antibacterial activity against methicillin-resistant Staphylococcus aureus infected in BALB/c mouse model of skin wound assessed as retainment of fat layers at 2 mg administered topically as ointment twice daily for 7 days and measured after 24 hrs by HE staining analysis. The format is functional, organism-based.
The test system of test [12] is Staphylococcus aureus. Put plainly: Antibacterial activity against methicillin-resistant Staphylococcus aureus infected in BALB/c mouse model of skin wound assessed as reduction in detachment of epidermis from dermis at 2 mg administered topically as ointment twice daily for 7 days and measured after 24 hrs by visual inspection method. The format is functional, organism-based.

Regarding `C[C@]12C[C@@]34C=C(Sc5cccc(I)c5)C(=O)[C@@](C)(CCC(=O)Nc5c(O)ccc(C(=O)O)c5O)[C@@H]3[C@H](C[C@@H]1C4)O2`, the MIC worked out at 0.5 µg/mL (≈ 0.74 µM) in the test on Staphylococcus aureus [1], 0.5 µg/mL (≈ 0.74 µM) in the test on Staphylococcus aureus [2] and 1 µg/mL (≈ 1.48 µM) in the test with Staphylococcus aureus [3]. Also, the “antibacterial activity (disk diffusion, qualitative)” value (“antibacterial activity” for short) with Staphylococcus aureus [4] is “Active”.
As for `C[C@]12C[C@@]34C=C(Sc5cccc(C#Cc6ccccn6)c5)C(=O)[C@@](C)(CCC(=O)Nc5c(O)ccc(C(=O)O)c5O)[C@@H]3[C@H](C[C@@H]1C4)O2`, the MIC in the test with Staphylococcus aureus [1], in the test with Staphylococcus aureus [2] and in the test with Staphylococcus aureus [3] was 0.5 µg/mL (≈ 0.768 µM) throughout. Also, the “antibacterial activity” value with Staphylococcus aureus [4] is “Active”.
Turning to `Cc1ccc(SC2=C[C@]34C[C@H]5C[C@H](O[C@@]5(C)C3)[C@H]4[C@](C)(CCC(=O)Nc3c(O)ccc(C(=O)O)c3O)C2=O)cc1`, the values for the MIC with Staphylococcus aureus [1], in the test with Staphylococcus aureus [2] and in the test with Staphylococcus aureus [3] were 0.25 µg/mL (≈ 0.444 µM), 0.25 µg/mL (≈ 0.444 µM) and 0.5 µg/mL (≈ 0.887 µM), respectively. Besides, the inhibition entry in the test on Staphylococcus aureus [5] was “Active”. For the same compound, the survival at 20 mg/kg in the test with Staphylococcus aureus [6] is 80%. For the same compound, the “antibacterial activity” value in the test on Staphylococcus aureus [4] was “Active”. Further, the survival at 10 mg/kg in the test on Staphylococcus aureus [7] is > 60%.
Take `CC(=O)NC[C@H]1CN(c2ccc(N3CCOCC3)c(F)c2)C(=O)O1`: the MIC with Staphylococcus aureus [1], with Staphylococcus aureus [2] and in the test with Staphylococcus aureus [3] was 1 µg/mL (≈ 2.96 µM) in each case. Besides, the “antibacterial activity” value in the test on Staphylococcus aureus [4] was “Active”.
As to `C[C@]12C[C@@]34C=C(Sc5cccc(C#CC6(O)CCCCC6)c5)C(=O)[C@@](C)(CCC(=O)Nc5c(O)ccc(C(=O)O)c5O)[C@@H]3[C@H](C[C@@H]1C4)O2`, the MIC in the test with Staphylococcus aureus [1], in the test with Staphylococcus aureus [2] and in the test on Staphylococcus aureus [3] was 0.25 µg/mL (≈ 0.372 µM) throughout. In addition, in the test with Staphylococcus aureus [4], the “antibacterial activity” value was “Active”.
`C[C@]12C[C@@]34C=C(Sc5ccc(I)cc5)C(=O)[C@@](C)(CCC(=O)Nc5c(O)ccc(C(=O)O)c5O)[C@@H]3[C@H](C[C@@H]1C4)O2`: the MIC with Staphylococcus aureus [1] stood at 0.25 µg/mL (≈ 0.37 µM); in the test on Staphylococcus aureus [2] it was 0.25 µg/mL (≈ 0.37 µM); in the test on Staphylococcus aureus [3], 0.5 µg/mL (≈ 0.74 µM). Moreover, in the test on Staphylococcus aureus [4], the “antibacterial activity” value is “Active”.
Consider `CCCSC1=C[C@]23C[C@H]4C[C@H](O[C@@]4(C)C2)[C@H]3[C@](C)(CCC(=O)Nc2c(O)ccc(C(=O)O)c2O)C1=O`, for which the MIC was 0.5 µg/mL (≈ 0.97 µM) with Staphylococcus aureus [1], 0.5 µg/mL (≈ 0.97 µM) in the test with Staphylococcus aureus [2] and 1 µg/mL (≈ 1.94 µM) in the test with Staphylococcus aureus [3]. In the test on Staphylococcus aureus [4], the “antibacterial activity” value is “Active”.
`C[C@]12C[C@@]34C=C(SCc5ccccc5)C(=O)[C@@](C)(CCC(=O)Nc5c(O)ccc(C(=O)O)c5O)[C@@H]3[C@H](C[C@@H]1C4)O2`: the MIC in the test on Staphylococcus aureus [1], in the test on Staphylococcus aureus [2] and with Staphylococcus aureus [3] was 0.5 µg/mL (≈ 0.887 µM) in each case. Further, the survival at 20 mg/kg in the test on Staphylococcus aureus [6] was 80%. Also, the “antibacterial activity” value with Staphylococcus aureus [4] was “Active”. For the same compound, the survival at 10 mg/kg in the test with Staphylococcus aureus [7] is > 60%.
Regarding `C/C(=C\C(=O)OCCCCCCCCC(=O)O)C[C@@H]1OC[C@H](C[C@@H]2O[C@H]2[C@@H](C)[C@H](C)O)[C@@H](O)[C@H]1O` [MUPIROCIN], the Activity with Staphylococcus aureus [8] came out at 6.5 ×10⁶ CFU/g. In addition, the result in the test on Staphylococcus aureus [9], in the test on Staphylococcus aureus [10], in the test on Staphylococcus aureus [11] and in the test on Staphylococcus aureus [12] was Active.
Consider `C[C@]12C[C@]34C[C@H]1C[C@H](O2)[C@H]3[C@](C)(CCC(=O)Nc1c(O)ccc(C(=O)O)c1O)C(=O)[C@@H]1O[C@@H]14`, for which the MIC in the test with Staphylococcus aureus [1] was determined as 16 µg/mL (≈ 35 µM); in the test with Staphylococcus aureus [2], 16 µg/mL (≈ 35 µM); in the test on Staphylococcus aureus [3], 32 µg/mL (≈ 69.9 µM).
On to `Cc1ccc(SC2=C[C@]34C[C@H]5C[C@H](O[C@@]5(C)C3)[C@H]4[C@](C)(CCC(=O)Nc3c(O)ccc(C(=O)O)c3O)C2=O)c(C)c1`, for which the “antibacterial activity” value with Staphylococcus aureus [4] was “Active”.
`C[C@]12C[C@@]34C=C(Sc5ccccn5)C(=O)[C@@](C)(CCC(=O)Nc5c(O)ccc(C(=O)O)c5O)[C@@H]3[C@H](C[C@@H]1C4)O2`: the MIC in the test with Staphylococcus aureus [1], with Staphylococcus aureus [2] and with Staphylococcus aureus [3] was 2 µg/mL (≈ 3.63 µM) each time. In addition, the “antibacterial activity” value with Staphylococcus aureus [4] is “Active”. The Survival result with Staphylococcus aureus [7] was “inactive”.
For the compound `C[C@]12C[C@@]34C=C(Sc5ccc(-c6ccco6)cc5)C(=O)[C@@](C)(CCC(=O)Nc5c(O)ccc(C(=O)O)c5O)[C@@H]3[C@H](C[C@@H]1C4)O2`, the “antibacterial activity” value in the test with Staphylococcus aureus [4] is “Active”.
On to `CC(C)(C)SC1=C[C@]23C[C@H]4C[C@H](O[C@@]4(C)C2)[C@H]3[C@](C)(CCC(=O)Nc2c(O)ccc(C(=O)O)c2O)C1=O`, for which, in the test on Staphylococcus aureus [4], the “antibacterial activity” value is “Active”.
Still for that read-out and setting: the result for `C[C@]12C[C@@]34C=C(Sc5ccc(N)cc5)C(=O)[C@@](C)(CCC(=O)Nc5c(O)ccc(C(=O)O)c5O)[C@@H]3[C@H](C[C@@H]1C4)O2` reads “Active”; that for `COc1ccccc1-c1cccc(SC2=C[C@]34C[C@H]5C[C@H](O[C@@]5(C)C3)[C@H]4[C@](C)(CCC(=O)Nc3c(O)ccc(C(=O)O)c3O)C2=O)c1`, “Active”.
With `C[C@]12C[C@@]34C=C(Sc5cccc(C#CCN)c5)C(=O)[C@@](C)(CCC(=O)Nc5c(O)ccc(C(=O)O)c5O)[C@@H]3[C@H](C[C@@H]1C4)O2`, in the test with Staphylococcus aureus [4], the “antibacterial activity” value was “Active”.
Still for that read-out and setting: the result for `C[C@]12C[C@@]34C=C(Sc5ccc(Cl)cc5)C(=O)[C@@](C)(CCC(=O)Nc5c(O)ccc(C(=O)O)c5O)[C@@H]3[C@H](C[C@@H]1C4)O2` reads “Active”; that for `CCCCCC#Cc1cccc(SC2=C[C@]34C[C@H]5C[C@H](O[C@@]5(C)C3)[C@H]4[C@](C)(CCC(=O)Nc3c(O)ccc(C(=O)O)c3O)C2=O)c1`, “Active”; that for `C[C@]12C[C@@]34C=C(Sc5cccc(C#Cc6cccc(N)c6)c5)C(=O)[C@@](C)(CCC(=O)Nc5c(O)ccc(C(=O)O)c5O)[C@@H]3[C@H](C[C@@H]1C4)O2`, “Active”.
The same measure, in the same setting: the result for `C[C@]12C[C@@]34C=C(Sc5ccc(C#CCN)cc5)C(=O)[C@@](C)(CCC(=O)Nc5c(O)ccc(C(=O)O)c5O)[C@@H]3[C@H](C[C@@H]1C4)O2` reads “Active”; that for `C=CCSC1=C[C@]23C[C@H]4C[C@H](O[C@@]4(C)C2)[C@H]3[C@](C)(CCC(=O)Nc2c(O)ccc(C(=O)O)c2O)C1=O`, “Active”; that for `C[C@]12C[C@@]34C=C(Sc5ccc(C#Cc6ccccc6)cc5)C(=O)[C@@](C)(CCC(=O)Nc5c(O)ccc(C(=O)O)c5O)[C@@H]3[C@H](C[C@@H]1C4)O2`, “Active”.
Take `C[C@]12C[C@@]34C=C(Sc5ccc(F)cc5)C(=O)[C@@](C)(CCC(=O)Nc5c(O)ccc(C(=O)O)c5O)[C@@H]3[C@H](C[C@@H]1C4)O2`: the MIC with Staphylococcus aureus [1] was 0.5 µg/mL (≈ 0.881 µM); in the test on Staphylococcus aureus [2], 0.5 µg/mL (≈ 0.881 µM); in the test on Staphylococcus aureus [3], 1 µg/mL (≈ 1.76 µM). Further, the “antibacterial activity” value in the test with Staphylococcus aureus [4] was “Active”.
As for `C[C@]12C[C@@]34C=C(Sc5cccc(/C=C/C(=O)OCCO)c5)C(=O)[C@@](C)(CCC(=O)Nc5c(O)ccc(C(=O)O)c5O)[C@@H]3[C@H](C[C@@H]1C4)O2`, the “antibacterial activity” value in the test with Staphylococcus aureus [4] is “Active”.
On the same count and under the same terms, the result for `C[C@]12C[C@@]34C=C(Sc5ccc(C#CC6(O)CCCCC6)cc5)C(=O)[C@@](C)(CCC(=O)Nc5c(O)ccc(C(=O)O)c5O)[C@@H]3[C@H](C[C@@H]1C4)O2` reads “Active”.
